Paper PMC6212778, “Site-specific amino acid substitution in dodecameric peptides determines the stability and unfolding of c-MYC quadruplex promoting apoptosis in cancer cells” (Nucleic Acids Research, 2018)
pKd: −log10 of the molar value.

Legend:
[1] = system: native c-MYC quadruplex (Pu27); experiment: ITC of peptides with native c-MYC quadruplex Pu27 in potassium phosphate buffer; format: binding, human; settings: for K A / pKd / ΔG (binding energy) / ΔH (binding enthalpy) / ΔS (entropy): 25°C, 20 μM peptide in cell, 500 μM Pu27 in syringe, 10 mM potassium phosphate, 0.1 M KCl, pH 7.0, one-site model
Experimental: The putative wild-type and truncated G-quadruplex forming sequences (Table 2 and Supplementary Table S1), located at the upstream of c-MYC promoter are reconstituted in 10 mM Potassium Phosphate buffer (pH 7.0) having 100 mM potassium chloride (KCl). The sequences are allowed to evolve G-quadruplex structure in solution by annealing at 95°C followed by gradual cooling. (Supplementary information Section 1).
Thermodynamic attributes of the interaction profiles between peptides and putative quadruplex sequences are analysed by ITC using iTC200 Microcalorimeter at 25°C. Synthetic peptides (FK13, KR12A, KR12B, KR12C, KR12D and KR12E) are diluted to 20 μM in 10 mM Potassium phosphate buffer (10 mM K2HPO4 + 10 mM KH2PO4) containing 0.1 M KCl (pH 7.0). Syringe is filled with 500 μM quadruplex sequences present in the upstream promoter regions of c-MYC (Pu27, Pu19, and Myc22), BCL-2 (Pu30), VEGF-A (Pu22), KRAS (Pu32) oncogenes, and telomere (Tel26) dissolved into the same buffer. We also carried out the experiment for KR12C and Pu27 using MCF-7 nuclear extract as the solvent to mimic the cellular microenvironment and impart macromolecular crowding during binding events. Same concentration of oligonucleotides is injected into the identical buffer or in nuclear extract without peptides to normalize the heat of dilution of peptide-quadruplex association to that of the control before curve-fitting. Oligonucleotides are injected 20 times at an interval of 150 s into the calorimeter cell having the peptides to achieve binding saturation. The heat of reaction per injection (μcal/s) is determined by integration of the peak areas using in-built Origin 7.0 software that provides the best-fit values of enthalpy (ΔH) and entropy (ΔS) of binding, the binding stoichiometry (n), and dissociation constant (Kd) (Supplementary Tables S5(a), S5(b) and S5(c)). Data points are further simulated with ‘one-site’ binding modes (Supplementary information Section 1).

[2] = system: BCL-2 promoter (BCL-2-GQ) in MCF-7 cells; experiment: Dual-luciferase assay, BCL-2 promoter with BCL-2-GQ; format: cell-based, human; settings: MCF-7, 24 h, peptide 0–60 μM
Experimental: (§1) MCF-7 cells are sub-cultured into 24-well microtiter plates at a cell density of 1 × 10^5 cells/well. Reporter constructs (c-MYC, BCL-2, KRAS and VEGF-A) (500 ng) with and/or without the G-quadruplex scaffolds triggering the expression of Renilla luciferase are co-transfected with 50 ng of pGL3-control vectors (Promega) (used as internal control), encoding firefly luciferase into MCF-7 cells using Lipofectamine® 3000 transfection reagent (Thermo-Fisher Scientific) following manufacturer's recommendations (Supplementary information Section 1). Twenty four hours post-transfection, cells are treated with peptides (FK13, KR12A, KR12B, KR12C, KR12D and KR12E) at an increasing concentration gradient.
(§2) Dual-luciferase assays are performed to examine the intracellular selectivity of peptides for c-MYC quadruplex isomers (Pu27, Myc22 and Pu19) over other oncogenic quadruplexes (BCL-2, VEGF-A and KRAS) of different topologies. The role of peptide-quadruplex complex in oncogene promoter activation is investigated in contrast to the GQ-null promoter constructs into MCF-7 cells ([67]). After 24 h of peptide treatment, cells are washed and lysed into 100 μl 1× Passive lysis buffer (PLB) for 15 min at room temperature. Renilla and firefly Luciferase activities in 25 μl lysate are quantified by Dual-Luciferase® reporter assay system (Promega) as per manufacturer's recommendations. Renilla luciferase enzyme activity is normalized to that of the firefly luciferase activity and luminescence of the peptide-treated samples are normalized to the untreated ones, which yield the fold induction values for Renilla activities by different quadruplex structures in presence and absence of synthetic peptides. Luminescence of each sample is detected in GloMax® 20/20 Single-Tube Luminometer (Promega) in triplicates and averaged from three independent experiments.

[3] = system: Sp1 at c-MYC-NHE III1 in MCF-7 cells; experiment: ChIP, Sp1 occupancy at c-MYC-NHE III1; format: cell-based, human; settings: MCF-7, 24 h, ChIP-qPCR versus IgG control
Experimental: (§3) Chromatin immunoprecipitation studies are conducted to monitor the promoter occupancies of different transcription factors (Sp1, NM23-H2 and Nucleolin) and RNA polymerase II (RNAPII) on the region encompassing c-MYC-NHE III1 ([69]). We have grown MCF-7 cells in 10-cm^2 culture flask at a density of 1 × 10^6 cells per well and treated with the synthetic peptides (FK13, KR12A, KR12B, and KR12C) for 24 hours. Cells are cross-linked with 1% formaldehyde at room temperature for 10 min and the reaction is stopped by 0.125 M glycine at room temperature for 10 min. Fixed cells are lysed and sonicated to yield DNA fragments of 200–500 bp. ChIP-grade antibodies (NM23-H2 (L-15) Antibody (sc-14790, Santa Cruz), and Anti-Nucleolin antibody [4E2]-ChIP Grade (Abcam)), Anti Sp1 antibody (Sigma), and Rpb1 (RNAPII subunit b1) CTD (C-terminal domain) 4H8 antibody are added to the sonicated chromatin and incubated overnight at 4°C. Then, 10 μl protein A magnetic beads (Dynal, Invitrogen), previously washed in RIPA buffer are added to the samples and bead–protein complexes are washed thrice with RIPA buffer and twice with TE buffer. The genomic DNA is eluted for 2 h at 68°C in complete elution Buffer (20 mM Tris, pH 7.5, 5 mM EDTA, 50 mM NaCl, 1% SDS and 50 μg/ml proteinase K) and further combined with the DNA eluted from second elution for 10 min at 68°C in 100 μl of elution buffer (20 mM Tris, pH 7.5, 5 mM EDTA and 50 mM NaCl). ChIP-isolated DNA is purified using MinElute Purification kit (Qiagen) and is amplified by PCR (Polymerase Chain Reaction) reactions using forward and reverse primers ([70]) (Supplementary Table S4) specific to the quadruplex-enriched regions at c-MYC promoter and Phusion® High-Fidelity PCR Kit (NEB). Anti-rabbit IgG is employed for mock immunoprecipitation (Negative control).

[4] = system: NM23-H2 at c-MYC-NHE III1 in MCF-7 cells; experiment: ChIP, NM23-H2 occupancy at c-MYC-NHE III1; format: cell-based, human; settings: MCF-7, 24 h, ChIP-qPCR versus IgG control
Experimental: as §3

[5] = system: Nucleolin at c-MYC-NHE III1 in MCF-7 cells; experiment: ChIP, Nucleolin occupancy at c-MYC-NHE III1; format: cell-based, human; settings: MCF-7, 24 h, ChIP-qPCR versus IgG control
Experimental: as §3

[6] = system: KRAS promoter (KRAS-GQ) in MCF-7 cells; experiment: Dual-luciferase assay, KRAS promoter with KRAS-GQ; format: cell-based, human; settings: MCF-7, 24 h; for KRAS promoter activity: peptide 0–60 μM
Experimental: as §1, §2

[7] = potassium phosphate buffer pH 7.0

Row | pKd [1] | ΔG (binding energy) [1] [kcal/mol] | ΔH (binding enthalpy) [1] [kcal/mol] | fold higher binding ΔH for Pu27 association compared to KR12B and KR12D [1, 7] [fold] | Substance | K A [1] [M⁻¹] | ΔS (entropy) [1] [cal/mol/deg] | BCL-2 promoter activity [2] | Sp1 occupancy at c-MYC-NHE III1 [3] | NM23-H2 occupancy at c-MYC-NHE III1 [4] | Nucleolin occupancy at c-MYC-NHE III1 [5] | times higher affinity for Pu27 compared to KR12B and KR12D [1, 7] [times] | KRAS promoter activity [6] | KRAS promoter activity, fold inhibition ([6]; at higher concentration) [fold]
1 | 4.46 | -5.982 | -77.8 | – | N – FKRIVQRIKDFLR – C [FK13] | 28900 | −241 | significantly downregulate | no role | no role | no role | – | – | –
2 | 5.09 | -6.974 | -47.8 | ~2 | N – KRIVKLIKKWLR – C [KR12C] | 124000 | −137 | no significant impact | depleted | depleted | depleted | ~5 | no significant impact | –
3 | 4.43 | -6.18 | -137.3 | – | N – KRIVKRIKKWLR – C [KR12B, dodecameric mutant peptide derived from FK13 / LL37] | 26800 | −440 | inverse regulation | no role in Sp1 occupancy | depleted the abundance | depleted the abundance | – | inverse regulation | –
4 | 4.21 | -6.44 | -72 | – | N – KRIVQRIKKWLR – C [KR12A, dodecameric mutant peptide derived from FK13 / LL37] | 16200 | −220 | significantly downregulate | slightly enriched | slightly enriched | did not significantly affect | – | – | ~2.5
